# Reference: PMC11345774, “Discovery of Novel, Selective, and Nonbasic Agonists for the Kappa-Opioid Receptor Determined by Salvinorin A-Based Virtual Screening” (Journal of Medicinal Chemistry, 2024)
# Like-named read-outs stand apart in the source and are kept apart here.
# Key:
# [1] = target: T1, human DOR (Homo sapiens, UniProt P41143); test: Radioligand competitive binding assay with [3H]DPDPE, membranes from CHO-hDOR cells; details: compound at 10 μM
# T1 construct: expressed in transfected cells; host or cells: CHO cells (CHO-hDOR), gift of Lawrence Toll, SRI International
# [2] = target: T2, human MOR (Homo sapiens, UniProt P35372); type: binding
# T2 construct: expressed in transfected cells; host or cells: CHO cells (CHO-hMOR), gift of Lawrence Toll, SRI International
# [3] = target: T3, human KOR (Homo sapiens, UniProt P41145); test: [35S]GTPγS binding assay, antagonist study: inhibition of U69,593-induced stimulation, CHO-hKOR membranes; type: biochemical; details: U69,593 1 μM
# [4] = target: T3, human KOR; test: Radioligand competitive binding assay with [3H]U69,593, membranes from CHO-hKOR cells; details: for inhibition at 10 µM: read-out: inhibition of [3H]U69,593 binding at the KOR; for Ki: read-out: binding affinity Ki
# [5] = target: T3, human KOR; test: [35S]GTPγS binding assay, antagonist study: inhibition of U69,593-induced stimulation, CHO-hKOR membranes; type: biochemical; details: U69,593 1 μM; read-out: inhibition of U69,593-induced stimulation of [35S]GTPγS binding, Inhibition
# [6] = target: T3, human KOR; test: [35S]GTPγS binding assay (G protein activation), CHO-hKOR cell membranes; type: biochemical; details: for Emax: read-out: G protein activation Emax
# [7] = target: T3, human KOR; test: PathHunter β-arrestin2 recruitment assay, U2OS-hKOR-β-arrestin2 cells; type: cell-based; details: for EC50: U2OS cells coexpressing hKOR and β-arrestin2, tested up to 10 μM, read-out: β-arrestin2 recruitment EC50 (dash symbol)
# [8] = system: KOR; details: cited from earlier work
# [9] = target: T3, human KOR; test: [35S]GTPγS binding assay, antagonist study: inhibition of U69,593-induced stimulation, CHO-hKOR membranes; type: biochemical; design: dose or concentration left out as unconfirmed; details: read-out: inhibition of U69,593-induced stimulation of [35S]GTPγS binding, Inhibition
SMILES,binding at the DOR [1],binding at the MOR [2],Ki [4],EC50 [6],β-arrestin2 recruitment upon activation of the KOR (in words) [7],EC50 [7],also measured
"CCO[C@@]12Cc3c([nH]c4ccccc34)[C@]3(C)Oc4c(O)ccc5c4[C@@]31CCN(CC1CC1)C2C5 [HS378, reference compound]",significant binding,,,,,,
Cc1cc2n(n1)C1(CCN(C(=O)c3ccc(Cl)cc3)CC1)CC(=O)N2CC1CC1 [SalA-VS-07],no substantial binding,no substantial binding,423 ± 97 nM,181 ± 49 nM,failed to induce β-arrestin2 recruitment,> 10000 nM,"IC50 [3]: 1270 ± 334 nM; inhibition at 10 µM ([4]; compound at 10 μM): > 50%; inhibition [5]: 52 ± 4%; Emax ([6]; relative to maximal effect of U69,593 (as 100%)): 48 ± 7%"
Cc1cc2n(n1)C1(CCN(C(=O)c3cccc(F)c3)CC1)CC(=O)N2CC1CC1 [SalA-VS-08],no substantial binding,no substantial binding,68.5 ± 5.5 nM,854 ± 60 nM,failed to induce β-arrestin2 recruitment,> 10000 nM,increased affinity at the KOR than SalA-VS-07 [4]: about 6 fold; inhibition at 10 µM [4]: > 50%; lower agonist potency at the KOR compared to SalA-VS-07 [6]: 5 fold; Emax [6]: 108 ± 8%
Cc1cc2n(n1)C1(CCN(C(=O)c3ccncc3)CC1)CC(=O)N2CC1CC1 [SalA-VS-09],,,,,,,KOR activity (in words) ([4]; binding screen at 10 μM): inactive
"COC(=O)[C@@H]1C[C@H](O)C(=O)[C@H]2[C@@]1(C)CC[C@H]1C(=O)O[C@H](c3ccoc3)C[C@]21C [SalB, Salvinorin B]",,,,,,,activity at the KOR (in words) [8]: inactive
"Oc1ccc2c3c1O[C@H]1c4[nH]c5c(c4C[C@@]4(O)[C@@H](C2)N(CC2CC2)CC[C@]314)C[C@@]1(O)[C@H]2Cc3ccc(O)c4c3[C@@]1(CCN2CC1CC1)[C@H]5O4 [nor-BNI, nor-binaltorphimine, reference compound]",,,,,,,inhibition [9]: 92 ± 6%
